Experimental data as given in article PMC12040169 (PLOS Biology, 2025).

Columns and labels:
[1] = tested on: T1, C. trachomatis L2/434/Bu expressing GFP (CTL2-GFP); test: microbe, parasite or virus in culture; design: C. trachomatis total inclusion area by high-content imaging, normalised to DMSO; settings: Chlamydia trachomatis, HeLa, 28.5 h; total inclusion area; read-out: % of control remaining
T1 construct: L2/434/Bu GFP intracellular growth in HeLa cells
Procedure, shortened: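 GFP/resorufin bulk fluorescence read → fix → Hoechst stain → high-content imaging. Inclusion total area + count = growth proxy; nuclei count = host viability proxy. MIC calc per earlier method.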

in vitro [2] = test: in vitro; design: Viability of infected HeLa host cells, resazurin conversion, bulk resorufin fluorescence relative to DMSO; settings: human, hela cells; bulk resorufin, mean of 2
in vitro [3] = settings: human, hela cells, % viability
[4] = tested on: T2, CTL2-GFP (C. trachomatis L2/434/Bu, GFP-expressing); test: microbe, parasite or virus in culture; design: Intracellular C. trachomatis growth in HeLa cells, bulk GFP fluorescence relative to DMSO; settings: Chlamydia trachomatis, HeLa, 28.5 h; bulk GFP, mean of 2; read-out: % of control remaining
T2 construct: L2/434/Bu, GFP-expressing
Experimental: MICs were calculated as described above.

Which activity at 1 µM [1] does the source give for CC(=O)c1cc(-c2cccnc2)cs1 [CBK017637] here?
The activity at 1 µM was 86.9%.

And the activity at 5 µM [1]?
Its activity at 5 µM is 83.4%.

And the activity at 10 µM [1]?
The activity at 10 µM was 98.2%.

And the viability at 28.5 h, 1 µM (in vitro [2])?
Its viability at 28.5 h, 1 µM is 113%.

What about the viability at 28.5 h, 5 µM (in vitro [2]) of the same compound?
The viability at 28.5 h, 5 µM was 110%.

What about the viability at 28.5 h, 10 µM (in vitro [2]) of the same compound?
Its viability at 28.5 h, 10 µM is 110%.

What about the viability at 28.5 h, 10 µM (in vitro [3]) of the same compound?
Its viability at 28.5 h, 10 µM is 82.4%.

What about the activity at 1 µM [4] of the same compound?
The activity at 1 µM was 140%.

And the activity at 5 µM [4]?
Its activity at 5 µM is 120%.

And the activity at 10 µM [4]?
Its activity at 10 µM is 123%.

What does the source list for O=C(Nc1cc(Cl)nc(Cl)c1)N(Cc1ccc(-c2ccccc2)cc1)CC1CCNCC1 [CBK049794]?
activity at 1 µM [1]: 62.1%; activity at 5 µM [1]: 41.7%; activity at 10 µM [1]: 25.8%; viability at 28.5 h, 1 µM (in vitro [2]): 95.2%; viability at 28.5 h, 5 µM (in vitro [2]): 100%; viability at 28.5 h, 10 µM (in vitro [2]): 97.9%; viability at 28.5 h, 10 µM (in vitro [3]): 82.6%; activity at 1 µM [4]: 115%; activity at 5 µM [4]: 90.8%; activity at 10 µM [4]: 90.8%

For COc1ccc(C(C)C)cc1-c1cn2ccnc2c(N2CCN(c3ccncc3)CC2)n1 [CBK066217], which activity at 1 µM [1] is on record?
The activity at 1 µM was 96.6%.

What about the activity at 5 µM [1] of the same compound?
The activity at 5 µM was 75.5%.

And the activity at 10 µM [1]?
The activity at 10 µM was 31.5%.

And the viability at 28.5 h, 1 µM (in vitro [2])?
The viability at 28.5 h, 1 µM was 102%.

What about the viability at 28.5 h, 5 µM (in vitro [2]) of the same compound?
The viability at 28.5 h, 5 µM was 104%.

And the viability at 28.5 h, 10 µM (in vitro [2])?
Its viability at 28.5 h, 10 µM is 101%.

And the viability at 28.5 h, 10 µM (in vitro [3])?
The viability at 28.5 h, 10 µM was 116%.

What about the activity at 1 µM [4] of the same compound?
Its activity at 1 µM is 91.5%.

And the activity at 5 µM [4]?
Its activity at 5 µM is 63.5%.

What about the activity at 10 µM [4] of the same compound?
Its activity at 10 µM is 28.4%.

Which activity at 1 µM [1] does the source give for Cc1csc(SC(C)C(=O)N2CCc3ccccc32)n1 (centres unmarked) [CBK305909] here?
The activity at 1 µM was 112%.

What about the activity at 5 µM [1] of the same compound?
Its activity at 5 µM is 49.8%.

What about the activity at 10 µM [1] of the same compound?
The activity at 10 µM was 42.5%.

And the viability at 28.5 h, 1 µM (in vitro [2])?
The viability at 28.5 h, 1 µM was 94.1%.

What about the viability at 28.5 h, 5 µM (in vitro [2]) of the same compound?
The viability at 28.5 h, 5 µM was 91.9%.

What about the viability at 28.5 h, 10 µM (in vitro [2]) of the same compound?
Its viability at 28.5 h, 10 µM is 89.5%.

And the viability at 28.5 h, 10 µM (in vitro [3])?
The viability at 28.5 h, 10 µM was 98.8%.

And the activity at 1 µM [4]?
Its activity at 1 µM is 143%.

And the activity at 5 µM [4]?
The activity at 5 µM was 149%.

And the activity at 10 µM [4]?
Its activity at 10 µM is 132%.

With CCC(Sc1nnc2c(n1)[nH]c1ccccc12)C(=O)N1c2ccccc2Sc2ccccc21 (centres unmarked) [CBK263929] as the compound, how does the activity at 1 µM [1] read?
Its activity at 1 µM is 32.8%.

And the activity at 5 µM [1]?
Its activity at 5 µM is 30.8%.

What about the activity at 10 µM [1] of the same compound?
Its activity at 10 µM is 13.4%.

What about the viability at 28.5 h, 1 µM (in vitro [2]) of the same compound?
Its viability at 28.5 h, 1 µM is 94.1%.

What about the viability at 28.5 h, 5 µM (in vitro [2]) of the same compound?
The viability at 28.5 h, 5 µM was 89.8%.

And the viability at 28.5 h, 10 µM (in vitro [2])?
Its viability at 28.5 h, 10 µM is 88.6%.

What about the viability at 28.5 h, 10 µM (in vitro [3]) of the same compound?
The viability at 28.5 h, 10 µM was 95.1%.

And the activity at 1 µM [4]?
The activity at 1 µM was 60.4%.

What about the activity at 5 µM [4] of the same compound?
Its activity at 5 µM is 52.9%.

And the activity at 10 µM [4]?
The activity at 10 µM was 44.5%.

For Cc1noc(NS(=O)(=O)c2ccc(N/C=C\C(=O)c3cccnc3)cc2)c1C [CBK264285], which activity at 1 µM [1] is on record?
The activity at 1 µM was 69.7%.

What about the activity at 5 µM [1] of the same compound?
Its activity at 5 µM is 26.3%.

What about the activity at 10 µM [1] of the same compound?
Its activity at 10 µM is 17.9%.

And the viability at 28.5 h, 1 µM (in vitro [2])?
Its viability at 28.5 h, 1 µM is 106%.

And the viability at 28.5 h, 5 µM (in vitro [2])?
Its viability at 28.5 h, 5 µM is 103%.

What about the viability at 28.5 h, 10 µM (in vitro [2]) of the same compound?
Its viability at 28.5 h, 10 µM is 104%.

And the viability at 28.5 h, 10 µM (in vitro [3])?
The viability at 28.5 h, 10 µM was 102%.

And the activity at 1 µM [4]?
Its activity at 1 µM is 72.6%.

And the activity at 5 µM [4]?
The activity at 5 µM was 13.6%.

What about the activity at 10 µM [4] of the same compound?
Its activity at 10 µM is 11.8%.

Which activity at 1 µM [1] does the source give for O=C(Nc1ccc(OC(F)(F)F)cc1)Nc1cc(-c2cccs2)n[nH]1 [CBK020563] here?
The activity at 1 µM was 96.5%.

And the activity at 5 µM [1]?
The activity at 5 µM was 24%.

And the activity at 10 µM [1]?
Its activity at 10 µM is 10.2%.

And the viability at 28.5 h, 1 µM (in vitro [2])?
The viability at 28.5 h, 1 µM was 113%.

And the viability at 28.5 h, 5 µM (in vitro [2])?
The viability at 28.5 h, 5 µM was 110%.

What about the viability at 28.5 h, 10 µM (in vitro [2]) of the same compound?
The viability at 28.5 h, 10 µM was 117%.

What about the viability at 28.5 h, 10 µM (in vitro [3]) of the same compound?
The viability at 28.5 h, 10 µM was 82.5%.

What about the activity at 1 µM [4] of the same compound?
Its activity at 1 µM is 100%.

And the activity at 5 µM [4]?
The activity at 5 µM was 13.4%.

And the activity at 10 µM [4]?
Its activity at 10 µM is 4.7%.

Which activity at 1 µM [1] does the source give for CC(Nc1cccc2ccccc12)C(=O)N/N=C/c1ccc(O)cc1O (centres unmarked) [CBK262681] here?
Its activity at 1 µM is 91.4%.

And the activity at 5 µM [1]?
Its activity at 5 µM is 46.9%.

What about the activity at 10 µM [1] of the same compound?
The activity at 10 µM was 24.5%.

And the viability at 28.5 h, 1 µM (in vitro [2])?
The viability at 28.5 h, 1 µM was 89.9%.

And the viability at 28.5 h, 5 µM (in vitro [2])?
Its viability at 28.5 h, 5 µM is 86.9%.

What about the viability at 28.5 h, 10 µM (in vitro [2]) of the same compound?
The viability at 28.5 h, 10 µM was 82.2%.

And the viability at 28.5 h, 10 µM (in vitro [3])?
The viability at 28.5 h, 10 µM was 75.9%.

And the activity at 1 µM [4]?
The activity at 1 µM was 103%.

What about the activity at 5 µM [4] of the same compound?
Its activity at 5 µM is 62.9%.

What about the activity at 10 µM [4] of the same compound?
Its activity at 10 µM is 42.4%.

Which activity at 1 µM [1] does the source give for COc1ccc(C2CC(=O)C=C(Nc3cc(Cl)ccc3O)C2)cc1 (centres unmarked) [CBK263542] here?
The activity at 1 µM was 81.9%.

What about the activity at 5 µM [1] of the same compound?
Its activity at 5 µM is 0.174%.

And the activity at 10 µM [1]?
The activity at 10 µM was 3.14%.

What about the viability at 28.5 h, 1 µM (in vitro [2]) of the same compound?
Its viability at 28.5 h, 1 µM is 90.9%.

And the viability at 28.5 h, 5 µM (in vitro [2])?
Its viability at 28.5 h, 5 µM is 101%.

And the viability at 28.5 h, 10 µM (in vitro [2])?
Its viability at 28.5 h, 10 µM is 87.8%.

And the viability at 28.5 h, 10 µM (in vitro [3])?
Its viability at 28.5 h, 10 µM is 105%.

And the activity at 1 µM [4]?
Its activity at 1 µM is 86%.

And the activity at 5 µM [4]?
Its activity at 5 µM is 0%.

And the activity at 10 µM [4]?
The activity at 10 µM was 9.05%.

With CC(=O)NC[C@H]1CN(c2ccc(-c3nnc(CCC#N)s3)c(F)c2)C(=O)O1 [CBK017926] as the compound, how does the activity at 1 µM [1] read?
The activity at 1 µM was 15.4%.

What about the activity at 5 µM [1] of the same compound?
Its activity at 5 µM is 0.206%.

What about the activity at 10 µM [1] of the same compound?
The activity at 10 µM was 0.193%.

And the viability at 28.5 h, 1 µM (in vitro [2])?
The viability at 28.5 h, 1 µM was 93.8%.

What about the viability at 28.5 h, 5 µM (in vitro [2]) of the same compound?
The viability at 28.5 h, 5 µM was 92%.

And the viability at 28.5 h, 10 µM (in vitro [2])?
The viability at 28.5 h, 10 µM was 95.7%.

What about the viability at 28.5 h, 10 µM (in vitro [3]) of the same compound?
Its viability at 28.5 h, 10 µM is 87.1%.

And the activity at 1 µM [4]?
The activity at 1 µM was 19.4%.

What about the activity at 5 µM [4] of the same compound?
The activity at 5 µM was 2.09%.

And the activity at 10 µM [4]?
Its activity at 10 µM is 3.05%.

What does the source list for N=c1c2c(-c3ccccc3)c(-c3ccccc3)n(Cc3ccccc3)c2ncn1CCN1CCOCC1 [CBK268537]?
activity at 1 µM [1]: 119%; activity at 5 µM [1]: 66.8%; activity at 10 µM [1]: 34.6%; viability at 28.5 h, 1 µM (in vitro [2]): 94.8%; viability at 28.5 h, 5 µM (in vitro [2]): 97.8%; viability at 28.5 h, 10 µM (in vitro [2]): 93.4%; viability at 28.5 h, 10 µM (in vitro [3]): 92%; activity at 1 µM [4]: 123%; activity at 5 µM [4]: 83%; activity at 10 µM [4]: 70.7%
